The results in this text go back to ChEMBL document CHEMBL3039007, “Structure-based identification of OATP1B1/3 inhibitors” (Mol Pharmacol, 2013).

In data set [1] the target is T1, Solute carrier organic anion transporter family member 1B1 (Homo sapiens, UniProt Q9Y6L6).
T1 sequence (Q9Y6L6 whole entry): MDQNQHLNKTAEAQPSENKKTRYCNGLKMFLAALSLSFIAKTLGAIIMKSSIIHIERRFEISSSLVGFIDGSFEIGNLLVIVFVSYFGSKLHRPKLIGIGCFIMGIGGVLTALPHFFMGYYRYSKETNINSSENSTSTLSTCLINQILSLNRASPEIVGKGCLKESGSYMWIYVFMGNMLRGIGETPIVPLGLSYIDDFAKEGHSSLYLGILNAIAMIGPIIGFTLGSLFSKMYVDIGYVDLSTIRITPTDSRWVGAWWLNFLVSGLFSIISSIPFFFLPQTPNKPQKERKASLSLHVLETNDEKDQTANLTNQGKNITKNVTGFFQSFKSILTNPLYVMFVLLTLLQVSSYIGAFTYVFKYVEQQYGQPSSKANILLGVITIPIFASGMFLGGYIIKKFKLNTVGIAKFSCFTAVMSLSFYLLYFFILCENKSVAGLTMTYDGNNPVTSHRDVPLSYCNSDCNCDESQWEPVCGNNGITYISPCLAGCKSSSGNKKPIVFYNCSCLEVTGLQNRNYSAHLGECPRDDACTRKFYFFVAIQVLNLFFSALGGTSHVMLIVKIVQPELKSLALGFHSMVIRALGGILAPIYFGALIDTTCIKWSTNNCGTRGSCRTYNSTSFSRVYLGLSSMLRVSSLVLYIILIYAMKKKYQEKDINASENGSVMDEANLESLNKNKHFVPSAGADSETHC
Particulars: chinese hamster, cho, 10 µM.

Data set [2] deals with T2, Solute carrier organic anion transporter family member 1B3 (Homo sapiens, UniProt Q9NPD5).
T2 sequence (Q9NPD5 whole entry): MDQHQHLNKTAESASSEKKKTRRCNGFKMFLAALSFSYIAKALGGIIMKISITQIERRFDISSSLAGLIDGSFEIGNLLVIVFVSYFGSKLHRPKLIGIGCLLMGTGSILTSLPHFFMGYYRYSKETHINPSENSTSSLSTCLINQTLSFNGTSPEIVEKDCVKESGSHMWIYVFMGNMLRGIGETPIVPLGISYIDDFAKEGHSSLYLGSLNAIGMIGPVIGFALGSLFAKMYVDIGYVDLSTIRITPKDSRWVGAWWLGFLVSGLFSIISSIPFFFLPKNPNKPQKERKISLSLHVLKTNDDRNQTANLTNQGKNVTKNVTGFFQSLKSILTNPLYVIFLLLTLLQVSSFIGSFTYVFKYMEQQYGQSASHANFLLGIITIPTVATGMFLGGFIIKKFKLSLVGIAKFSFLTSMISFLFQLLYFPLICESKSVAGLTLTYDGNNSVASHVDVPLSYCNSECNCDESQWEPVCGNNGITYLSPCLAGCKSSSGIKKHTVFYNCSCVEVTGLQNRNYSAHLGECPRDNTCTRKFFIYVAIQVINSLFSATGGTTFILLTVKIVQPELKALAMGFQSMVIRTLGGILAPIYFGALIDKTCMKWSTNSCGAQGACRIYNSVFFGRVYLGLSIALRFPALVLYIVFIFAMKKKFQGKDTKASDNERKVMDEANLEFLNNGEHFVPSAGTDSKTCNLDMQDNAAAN
Particulars: chinese hamster, cho, 10 µM.

The structures appear in SMILES notation.

One may read the residual activity as the signal under treatment as a percentage of the control signal. As for `COc1cc(OC)c(OC)cc1C=O`, the residual activity is 48.71% in data set [1] and 59.17% in data set [2].

Consider `Cc1ccc(/C(=C\CN2CCCC2)c2ccccn2)cc1.Cl`, for which the residual activity in data set [1] was found to be 83.77%; in data set [2], 76.5%.

For `NC(Cc1c[nH]cn1)C(=O)Nc1ccc2ccccc2c1` (stereo unspecified), the residual activity in data set [1] amounted to 89.48%; in data set [2] it was 105.8%.

Consider `CNc1ccccc1C(=O)O`, for which the figures for the residual activity in data set [1] and in data set [2] were 90.95% and 100.4%, respectively.

Consider `CN1CCN(CCCN2c3ccccc3Sc3ccc(C(F)(F)F)cc32)CC1.Cl`, for which the figures for the residual activity in data set [1] and in data set [2] were 146.4% and 70.51%, respectively.

As for `COC(=O)[C@H](Cc1ccccc1)NC(=O)[C@@H](N)CC(=O)O`, the residual activity was found to be 85.37% in data set [1] and 115% in data set [2].

For `COc1cccc(C=O)c1OC`, the residual activity in data set [1] is 107.3%; in data set [2] it was 100.4%.

As for `N[C@@H](CSCSC[C@H](N)C(=O)O)C(=O)O`, the residual activity in data set [1] came out at 92.41%; in data set [2], 96.92%.

For the compound `C[C@H]1[C@H](C)CC[C@@]23CC[C@]4(C)[C@@](C=C[C@@H]5[C@@]6(C)CC[C@H](O)C(C)(C)[C@@H]6CC[C@]54C)(OC2=O)[C@H]13`, the residual activity is reported as 114.4% in data set [1] and 98.51% in data set [2].

As to `C[C@@H]1C[C@H](O)[C@@]2(O)[C@]13CC(=O)OC[C@]2(C)[C@@](C)(O)C(=O)C3`, the residual activity in data set [1] stood at 95.73%; in data set [2], 109.4%.

Take `CC1(C)C[C@@H]2[C@H]1CC[C@]1(C)C[C@@]2(O)CC[C@H]1O`: the residual activity in data set [1] was determined as 81.35%; in data set [2] it was 87.7%.

Consider `CC1=CC2C(C(C)C)CC[C@@](C)(O)C2CC1` (stereo partly specified), for which the residual activity in data set [1] was 80.24%; in data set [2], 88.94%.

As for `C=C[C@@](C)(O)CC[C@H]1C(=C)C[C@H](OC(C)=O)[C@H]2C(C)(C)CCC[C@]12C`, the residual activity in data set [1] is listed as 81.97%; in data set [2], 80.26%.

`C=C1C([C@]2(C)C(CC(=O)OC)[C@@](C)(COC(C)=O)OC(=O)C[C@H]2OC(C)=O)[C@@H](OC=O)[C@@H](OC(=O)C(O)C(C)CC)[C@@]2(C)[C@H](c3ccoc3)CC(=O)C12O` (stereo partly specified): the residual activity is on record as 28.24% in data set [1] and 54.44% in data set [2].

On to `NC[C@H]1O[C@H](O[C@H]2[C@H](O[C@@H]3O[C@H](CO)[C@@H](O)[C@H]3O)[C@@H](O)[C@H](N)C[C@@H]2N)[C@H](N)[C@@H](O)[C@@H]1O.O=S(=O)(O)O`, for which the results for the residual activity in data set [1] and in data set [2] were 107.3% and 98.01%, respectively.

With `CC(=O)Oc1cc2c(c(C)c1OC(C)=O)CC=C1[C@]2(C)CC[C@]2(C)[C@@H]3C[C@](C)(C(=O)O)CC[C@]3(C)CC[C@@]12C`, the residual activity stood at 47.56% in data set [1] and 13.7% in data set [2].

Take `C[C@@H]1C[C@H]2CC(=O)[C@H]3CCCN4CCCC2[C@]34C1.[O-][Cl+3]([O-])([O-])O` (stereo partly specified): the values for the residual activity in data set [1] and in data set [2] were 104.6% and 106.7%, respectively.

Turning to `COC(=O)CCC(=O)O[C@H]1CC[C@@]2(C)[C@@H](CC[C@@H]3[C@@H]2C(=O)[C@@H](O)[C@]2(C)C4C(C[C@@H]32)O[C@@]2(CCC(C)CO2)[C@H]4C)C1` (stereo partly specified), the figures for the residual activity in data set [1] and in data set [2] were 131.1% and 83.53%, respectively.

In the case of `C[C@H](C(=O)O)[C@H]1CC[C@H]2[C@@H]3CC=C4C[C@@H](O)CC[C@]4(C)[C@H]3CC[C@]12C`, the figures for the residual activity in data set [1] and in data set [2] were 71.16% and 83.58%, respectively.

As for `CC(C)CCC[C@@H](C)[C@H]1CC[C@H]2[C@@H]3CC[C@H]4CCCC[C@]4(C)[C@H]3CC[C@]12C`, the residual activity in data set [1] was 88.28%; in data set [2], 103.3%.

As to `CC(C)CCC[C@@H](C)[C@H]1CC[C@H]2C3=CC[C@H]4C[C@@H](O)CC[C@]4(C)[C@H]3CC[C@]12C`, the residual activity was found to be 85.16% in data set [1] and 99.24% in data set [2].

On to `COC(=O)C[C@H]1C(C)(C)[C@]2(Cl)O[C@@]34CC2C(=O)[C@]1(C)C3CC[C@]1(C)C4=CC(=O)O[C@H]1c1ccoc1` (stereo partly specified), for which the residual activity in data set [1] came to 68.86%; in data set [2] it was 88.12%.

As to `CC[C@H](/C=C/[C@@H](C)[C@H]1CC[C@H]2[C@@H]3CCC4=CC(=O)CC[C@]4(C)[C@H]3CC[C@]12C)C(C)C`, the residual activity in data set [1] is reported as 89.99%; in data set [2], 88.84%.

As to `O=C1CC[C@]23/C=C/C(=O)NCCCCNCCCNC(=O)/C=C\c4ccc(c2c4)O[C@@H]3C1`, the residual activity in data set [1] stood at 70.42%; in data set [2], 100.4%.

With `CC(=O)O[C@H]1CC[C@]2(C)C3=C(CC[C@H]2C1(C)C)[C@]1(C)CC[C@H]([C@H](C)CCC=C(C)C)[C@@]1(C)CC3`, the residual activity came to 54.67% in data set [1] and 93.79% in data set [2].

`CC(C)c1c(O)ccc2c1CCC1[C@@](C)(C(=O)O)CCC[C@]21C` (stereo partly specified): the residual activity in data set [1] came to 61.16%; in data set [2], 80.85%.

With `C=C[C@@](C)(O)CC[C@H]1C(=C)C[C@H](O)[C@H]2C(C)(C)CCC[C@]12C`, the residual activity in data set [1] came out at 48.6%; in data set [2], 78.26%.

Turning to `CC[C@H](C)[C@@H](NC)C(=O)O`, the residual activity in data set [1] stood at 122.8%; in data set [2] it was 105.9%.

For the compound `O[C@@H]1[C@@H](O)[C@@H]2OC[C@@H](O2)[C@H]1O`, the results for the residual activity in data set [1] and in data set [2] were 105.1% and 106%, respectively.

For the compound `O=c1cccc2n1C[C@@H]1C[C@H]2CN2CCCC[C@H]12.[O-][Cl+3]([O-])([O-])O`, the results for the residual activity in data set [1] and in data set [2] were 88.32% and 98.01%, respectively.

Turning to `CC(=O)OCC(=O)[C@@]1(O)CC[C@H]2[C@@H]3CC[C@H]4CC(OC(C)=O)CC[C@]4(C)[C@H]3C(=O)C[C@@]21C` (stereo partly specified), the residual activity stood at 99.36% in data set [1] and 97.61% in data set [2].

Consider `CC(=O)O[C@@H]1CC(=O)[C@]2(C)[C@H]3CC[C@@]4(C)[C@H](c5ccoc5)OC(=O)[C@H]5O[C@]54[C@]3(C)C(=O)C[C@H]2C1(C)C`, for which the residual activity in data set [1] amounted to 80.54%; in data set [2], 97.89%.

As to `CCC(C)C(=O)O[C@@H]1C[C@]2(C)[C@H](c3ccoc3)OC(=O)CC23OC2(C)OC34[C@H](OC(=O)C(C)C)[C@@]3(O)[C@@H](OC(=O)[C@]5(C)O[C@H]5C)[C@]5(C)C[C@@]3(O)[C@@](C)([C@H]5CC(=O)OC)C14O2` (stereo partly specified), the residual activity in data set [1] is -0.3887%; in data set [2], 0.6163%.

Turning to `C[C@@H]([C@H]1OC(C)(C)[C@@H](O)[C@H]1O)[C@@H]1CC[C@]2(C)C3=CC[C@H]4C(C)(C)C(=O)CC[C@]4(C)[C@H]3CC[C@@]12C`, the residual activity in data set [1] is 77.68%; in data set [2], 98.76%.

For `CN[C@H]1C[C@@H](N)[C@H](O)[C@@H](O[C@@H]2O[C@H](CO)[C@H](O)[C@H]3O[C@@]4(O[C@H]23)O[C@H]([C@H](N)CO)[C@H](O)[C@H](O)[C@H]4O)[C@@H]1O`, the residual activity was found to be 103.7% in data set [1] and 91.81% in data set [2].

`COc1ccc(/C=C/C(=O)Nc2ccccc2C(=O)O)cc1OC`: the residual activity in data set [1] was 55.59%; in data set [2] it was 71.26%.

For the compound `CC(=O)c1cc2c(cc1O)OC(C)(C)C=C2`, the residual activity in data set [1] was found to be 84.54%; in data set [2], 88.13%.

As to `CO[C@H]1C=C[C@@]23c4cc5c(cc4CN(C[C@@H]2O)[C@H]3C1)OCO5`, the residual activity in data set [1] came out at 94.19%; in data set [2] it was 100.9196%.
